Experimental data as given in patent publication US10238738B2, “Methods of modulating immune system responses” (priority 2014, dated 2019).

Legend:
Assay type in all cases: cell-based, human
NF-κB response to HBP = experiment: HBP internalization assay: NF-κB luciferase in 293T cells pre-treated with inhibitors; settings: 80 μM Dynasore or 10 μM cytochalasin D 1 hr prior to stimulation, FIG. 3b
Procedure: (§1) 293T were maintained in DMEM supplemented with 10% FBS, 1% glutamax, and 1% penicillin streptomycin. Jurkat 1G5 cells contain a stably-integrated LTR-luciferase reporter gene (Aguilar-Cordova et al., 1994), and were maintained in RPMI supplemented with 10% FBS and 1% glutamax. THP-1 cells were maintained in RPMI supplemented with 10% FBS and 1% glutamax and differentiated to macrophages with 50 ng/ml PMA for 48 hr, followed by a 48 hr rest period prior to stimulation. To measure LTR-driven luciferase, 1G5 cells were lysed and luminescence determined using the Luciferase Assay kit (Promega) according to manufacturer's instructions. Results are expressed as fold change compared to untreated. 293T cells were transfected in 96 well plates with 90 ng ELAM firefly luciferase reporter plasmid (Chow et al., 1999) and 10 ng pRL-TK Renilla plasmid using TransiT LTI (Mirus). 18 hours later cells were treated for 6 hours and luciferase activity determined using the Dual-Glo Luciferase Assay System (Promega). Results are expressed as fold increase relative to transfected, mock treated cells following normalization to Renilla luciferase. […]

THP-1 macrophages = experiment: Infection of THP-1 macrophages with serum-opsonized E. coli, IL-6 production; settings: 10 μg/ml cytochalasin D for 30 min; FIG. 6a
Procedure: Neisseria strains were grown overnight on GC agar supplemented with IsovitaleX enrichment (BD Biosciences). E. coli and S. typhimurium were grown overnight on LB agar, S. pneumoniae was grown on Columbia blood agar containing 5% sheep blood, and H. influenzae, B. multivorans, L. monocytogenes, and S. aureus were grown on brain heart infusion (BHI) agar (BD Biosciences). Where culture supernatant was desired, overnight cultures were scraped into PBS, re-suspended in RPMI 1% Isovitalex at an OD600=0.2, grown for 6 hours and the spent medium filtered through a 0.22 μm filter. For heat-killed bacteria, overnight cultures were scraped into PBS and 1 OD600 unit was re-suspended in 100 μl PBS and heated to 65° C. for 1 hr, with the exception of B. multivorans which was heated to 85° C. Cell pellets were washed, re-suspended in 100 μl PBS, and 2 μl/well used as treatment. To generate lysates, cultures were treated as above and boiled for 15 minutes. […]
Relative expression was calculated using the 2^−ΔΔCT method following normalization of target gene abundance to GAPDH. Quantitative measurements of cytokines were performed using ELISA kits form R&D Systems (KC, IL-23, IFN-β) or BD Biosciences (IL-1β, IL-8, IL-6, IL-12p70, TNF-α). Nuclear extracts were prepared from Jurkat T cells and NF-κB subunit binding was determined using the TransAM® Transcription Factor ELISA (Active Motif). […]

NF-κB = NF-κB luciferase reporter assay in 293T cells
Procedure: as §1, with “luciferase. Digitonin permeabilization assays were done as described previously (Girardin et al., 2003) with the following modifications: 1G5 cells were stimulated with purified HBP supernatants, or 10 μg/ml flagellin (Invivogen) for 20 minutes at 4° C. in the absence or presence of 2 μg/ml digitonin (Sigma).” for “luciferase.”
293T were maintained in DMEM supplemented with 10% FBS, 1% glutamax, and 1% penicillin streptomycin. […] To measure LTR-driven luciferase, 1G5 cells were lysed and luminescence determined using the Luciferase Assay kit (Promega) according to manufacturers instructions. Results are expressed as fold change compared to untreated. […] 18 hours later cells were treated for 6 hours and luciferase activity determined using the Dual-Glo Luciferase Assay System (Promega). Results are expressed as fold increase relative to transfected, mock treated cells following normalization to Renilla luciferase.

[1] = test system: HIV LTR-luciferase in Jurkat 1G5 cells; experiment: LTR-driven luciferase in Jurkat 1G5 cells with reversible digitonin permeabilization; settings: FIG. 3a
Procedure: as §1

In the case of `O=C(N/N=C/c1ccc(O)c(O)c1)c1cc2ccccc2cc1O` [Dynasore], the “Effect of inhibitor on NF-κB response to HBP” value (NF-κB response to HBP) is reported as “attenuated the NF-κB response to HBP”.
In the case of `C=C1[C@@H](C)[C@H]2[C@H](Cc3ccccc3)NC(=O)[C@]23[C@H](OC(C)=O)/C=C/[C@@](C)(O)C(=O)[C@@H](C)C/C=C/[C@H]3[C@@H]1O` [cytochalasin D], the “Effect of pre-treatment on the higher IL-6 production induced by HBP-synthesizing E. coli” value (THP-1 macrophages) is reported as “abrogated the effect” and the “Effect of inhibitor on NF-κB response to HBP” value (NF-κB response to HBP) is reported as “not”.
In the case of `C[C@H](N)C(=O)N[C@H](CCC(=O)N[C@@H](CCC[C@@H](N)C(=O)O)C(=O)O)C(=O)O` [m-TriDAP, reference compound], the “NF-κB response of 293T cells to known Gram-negative PAMPs” value (NF-κB) is reported as “unresponsive”.
With flagellin the “Luciferase activity after delivery into the cytosol” value [1] was “remained constant”.
